Assay results published in patent publication US12637413B2, “Fatty acid amide hydrolase (FAAH) cleavable prodrugs of thyromimetics and combination with peripherally restricted FAAH inhibitors” (Autobahn Therapeutics, Inc., priority 2021, dated 2026).

How the values were obtained:
FAAH = biological target: T1, FAAH (Mus musculus, UniProt O08914); assay: tissue distribution after co-dosing prodrug ABX-002 with or without PFI or GFI; format: in vivo, mice; details: for Distribution: peripheral or global FAAH inhibitor
T1 construct: from tissue; host or cells: living mice; plasma, liver and brain sampled
T1 sequence (O08914 1-579): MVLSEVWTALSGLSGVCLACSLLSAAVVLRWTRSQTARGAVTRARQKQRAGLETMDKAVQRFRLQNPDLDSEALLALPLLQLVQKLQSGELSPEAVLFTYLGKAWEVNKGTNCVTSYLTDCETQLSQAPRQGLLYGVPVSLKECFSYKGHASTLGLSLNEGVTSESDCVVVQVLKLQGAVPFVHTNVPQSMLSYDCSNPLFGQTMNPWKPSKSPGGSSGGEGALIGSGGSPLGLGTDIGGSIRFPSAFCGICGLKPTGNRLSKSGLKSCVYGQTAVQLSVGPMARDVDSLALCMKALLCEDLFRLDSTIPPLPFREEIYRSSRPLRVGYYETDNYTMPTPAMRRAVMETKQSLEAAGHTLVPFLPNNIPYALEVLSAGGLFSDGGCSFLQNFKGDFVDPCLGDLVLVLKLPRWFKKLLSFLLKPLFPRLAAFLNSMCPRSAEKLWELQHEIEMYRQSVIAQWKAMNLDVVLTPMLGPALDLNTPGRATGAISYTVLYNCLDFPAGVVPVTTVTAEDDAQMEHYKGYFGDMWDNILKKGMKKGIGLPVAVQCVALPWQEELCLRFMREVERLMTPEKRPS
Protocol: The ability of globally-penetrant and peripherally-restricted FAAH inhibitors (GFI & PFI, respectively) to alter distribution of ABX-002 and ABX-002A was assessed.
Table 5 depicts the inhibition of active metabolite (LL-650177 or PF-044578454) in AUC in the plasma, liver, and brain after prodrug (ABX-002) co-dosing. Tissue distribution studies in mice confirm global & peripheral inhibition of FAAH.

recombinant human FAAH = biological target: T2, recombinant human FAAH (Homo sapiens, UniProt O00519); assay: FAAH inhibition, 30 min preincubation, AMC substrate; format: biochemical; details: 30 min preincubation with recombinant human FAAH and AMC; read-out: Apparent IC50s
T2 sequence (O00519 1-579): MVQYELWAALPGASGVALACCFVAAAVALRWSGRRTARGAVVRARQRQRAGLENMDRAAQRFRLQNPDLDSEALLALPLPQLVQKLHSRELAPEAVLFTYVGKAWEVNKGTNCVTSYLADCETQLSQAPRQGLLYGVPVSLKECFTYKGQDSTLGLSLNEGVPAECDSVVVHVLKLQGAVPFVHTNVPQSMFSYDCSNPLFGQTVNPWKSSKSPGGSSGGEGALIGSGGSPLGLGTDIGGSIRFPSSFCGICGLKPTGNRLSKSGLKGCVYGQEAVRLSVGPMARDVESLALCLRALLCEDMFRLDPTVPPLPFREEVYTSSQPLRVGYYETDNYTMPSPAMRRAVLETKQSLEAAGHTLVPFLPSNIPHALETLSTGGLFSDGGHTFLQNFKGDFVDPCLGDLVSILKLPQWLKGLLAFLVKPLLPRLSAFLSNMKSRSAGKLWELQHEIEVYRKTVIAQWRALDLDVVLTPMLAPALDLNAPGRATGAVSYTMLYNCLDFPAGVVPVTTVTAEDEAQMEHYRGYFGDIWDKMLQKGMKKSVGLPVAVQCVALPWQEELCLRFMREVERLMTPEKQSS

[1] = biological target: T3, recombinant human FAAH (rhFAAH) (Homo sapiens, UniProt O00519); assay: FAAH substrate evaluation (acid metabolite formation); format: biochemical; details: observed rate constant for acid metabolite formation; 0.5 ng/μL rhFAAH, 1 μM test compound, room temperature, 0-60 minutes
T3 construct: purchased Cayman Chemical (Ann Arbor, MI, USA)
T3 sequence (O00519 1-579): T2 sequence (O00519 1-579)
Protocol: Purified recombinant human FAAH (rhFAAH) was purchased from Cayman Chemical (Ann Arbor, MI, USA). The total volume for each incubation was 400 μL containing a final 0.5 ng/μL rhFAAH, 1 μM test compound, 1.25% ethanol or 1 μM PF-3845 (FAAH inhibitor), and 0.1% bovine serum albumin in Tris-EDTA buffer at pH 8.0). The positive control was LL-341001. The incubation was conducted at the room temperature. At 0, 5, 15, 30 and 60 minutes, an aliquot of 30 μL reaction mixtures was removed and mixed with 300 μL acetonitrile containing 5 ng/mL terfenadine and 10 ng/mL tolbutamide as internal standards to quench the reaction. The resulting mixture was centrifuged at 4000 rpm, 4° C. for 15 minutes, and 100 μL supernatant was ready for LC-MS/MS analysis to measure the formation of acid metabolite.
Acquity Ultra Performance LC system from Waters was used for sample analysis. The chromatography was performed on a reverse phase Kinetex 2.6 μm C18 column, 2.1×30 mm, 100 Å. The mobile phase A comprised of 0.1% formic acid in water and mobile phase B comprised of 0.1% formic acid in acetonitrile with a 2-min run time at the flow rate of 0.8 mL/min for the acid metabolite from positive control or a 1.5 min run time at the flow rate of 0.9 mL/min for the acid metabolite of test compounds. The mass spectrometer (API-5500 and API Q Trap 4000 Applied Biosystems/MDS SCIEX Instruments, Framingham, MA, USA) was operated under ESI positive or negative ion MRM mode.
The formation of acid metabolite was monitored and quantified using one calibration point of 1 μM. The observed rate constant (ke) for the acid metabolite formation was calculated by plotting the metabolite concentration versus time of incubation with the slope being ke and is shown in Table 1.

Row | ke [1] | SMILES | further results
1 | – | NC(=O)c1cccc(-c2cc(OC(=O)NC3CCCCC3)ccc2O)c1 [URB937] | Distribution (FAAH): Peripheral; IC50 (recombinant human FAAH): 0.069 µM
2 | B (ke is less than 0.1 and more than 0) | CCCN(C)C(=O)COc1cc(Cl)c(Cc2ccc(O)c(C(C)C)c2)c(Cl)c1 [Compound 129, 2-(3,5-dichloro-4-(4-hydroxy-3-isopropylbenzyl)phenoxy)-N-methyl-N-propylacetamide] | –
3 | B (ke is less than 0.1 and more than 0) | CC(C)c1cc(Cc2c(Cl)cc(OCC(=O)N(C)CCO)cc2Cl)ccc1O [Compound 123, 2-(3,5-dichloro-4-(4-hydroxy-3-isopropylbenzyl)phenoxy)-N-(2-hydroxyethyl)-N-methylacetamide] | –
4 | A (ke is more than or equal to 0.1) | CC(C)c1cc(Cc2c(Cl)cc(OCC(=O)NCC(F)F)cc2Cl)ccc1O [Compound 15] | –
5 | – | O=C(Nc1cccnn1)N1CCC(=Cc2cccc(Oc3ccc(C(F)(F)F)cn3)c2)CC1 [PF-04457845] | inhibition of active metabolite AUC, Brain (FAAH; ABX-002A AUC after ABX-002 co-dosing, mice, brain): 83%; inhibition of active metabolite AUC, Liver (FAAH; ABX-002A AUC after ABX-002 co-dosing, mice, liver): 94%; inhibition of active metabolite AUC, Plasma (FAAH; ABX-002A AUC after ABX-002 co-dosing, mice, plasma): 94%; Distribution (FAAH): Global; IC50 (recombinant human FAAH): 0.003 µM
6 | B (ke is less than 0.1 and more than 0) | CC(C)c1cc(Cc2c(Cl)cc(OCC(=O)NCCc3ccc(O)c(O)c3)cc2Cl)ccc1O [Compound 24] | –
7 | B (ke is less than 0.1 and more than 0) | CC(C)c1cc(Cc2c(Cl)cc(OCC(=O)N3CCCC3)cc2Cl)ccc1O [Compound 117, 2-(3,5-dichloro-4-(4-hydroxy-3-isopropylbenzyl)phenoxy)-1-(pyrrolidin-1-yl)ethan-1-one] | –
8 | A (ke is more than or equal to 0.1) | CNC(=O)COc1cc(Cl)c(Cc2ccc(O)c(C(C)C)c2F)c(Cl)c1 [Compound 31] | –
9 | A (ke is more than or equal to 0.1) | CCCNC(=O)COc1cc(Cl)c(Cc2ccc(O)c(C(C)C)c2)c(Cl)c1 [Compound 3] | –
10 | A (ke is more than or equal to 0.1) | CC(C)c1cc(Cc2c(Cl)cc(OCC(=O)NCCO)cc2Cl)ccc1O [Compound 6] | –
11 | B (ke is less than 0.1 and more than 0) | CC(C)c1cc(Cc2c(Cl)cc(OCC(=O)N(C)CC(F)(F)F)cc2Cl)ccc1O [Compound 131, 2-(3,5-dichloro-4-(4-hydroxy-3-isopropylbenzyl)phenoxy)-N-methyl-N-(2,2,2-trifluoroethyl)acetamide] | –
12 | A (ke is more than or equal to 0.1) | CC(C)c1cc(Cc2c(Cl)cc(OCC(=O)Nc3cccnc3)cc2Cl)ccc1O [Compound 114, 2-(3,5-dichloro-4-(4-hydroxy-3-isopropylbenzyl)phenoxy)-N-(pyridin-3-yl)acetamide] | –
13 | A (ke is more than or equal to 0.1) | CNC(=O)COc1cc(F)c(Cc2ccc(O)c(C(C)C)c2)c(Cl)c1F [Compound 42] | –
14 | B (ke is less than 0.1 and more than 0) | CC(C)c1cc(Cc2c(Cl)cc(OCC(=O)N(C)CC(F)F)cc2Cl)ccc1O [Compound 132, 2-(3,5-dichloro-4-(4-hydroxy-3-isopropylbenzyl)phenoxy)-N-(2,2-difluoroethyl)-N-methylacetamide] | –
15 | C (ke is 0) | CC(C)CN(C)C(=O)COc1cc(Cl)c(Cc2ccc(O)c(C(C)C)c2)c(Cl)c1 [Compound 120, 2-(3,5-dichloro-4-(4-hydroxy-3-isopropylbenzyl)phenoxy)-N-isobutyl-N-methylacetamide] | –
16 | A (ke is more than or equal to 0.1) | CC(C)c1cc(Cc2c(Cl)cc(OCC(=O)N[C@@H]3C[C@@H]3F)cc2Cl)ccc1O [Compound 111, 2-(3,5-dichloro-4-(4-hydroxy-3-isopropylbenzyl)phenoxy)-N-((1R,2S)-2-fluorocyclopropyl)acetamide] | –
17 | A (ke is more than or equal to 0.1) | C=CCNC(=O)COc1cc(Cl)c(Cc2ccc(O)c(C(C)C)c2)c(Cl)c1 [Compound 4] | –
